# Laboratory results: the supplement of paper PMC10307832
# Compound: N#CC1(c2ccc(NC(=O)c3cccnc3NCc3ccncc3)cc2)CCCC1 [Apatinib] + CC(C)C[C@H](NC(=O)[C@H](Cc1ccccc1)NC(=O)c1cnccn1)B(O)O [Bortezomib] (partner 0.002 µM)
# Assay: relative viability (nuclei count vs DMSO), 5 days (fraction); higher = more cells survive
# Details: first compound 8 µM
# Outline: (§1)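 Lung cancer cell lines were pin-tool dosed in 1536-well plates on the day after seeding, with either a lone drug or a fixed anchor-drug dose plus five library-drug doses (not always all listed) in √10 steps. Nuclei were counted on 4× images after 5 days. Relative viability is the ratio of treated-well to vehicle-well nuclei counts, with each value a median of duplicate plates.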
row,Cell Line,relative viability
1,NCI-H520,0.447
2,NCI-H596,1.04

# Compound: CN(C)C(=N)NC(=N)N [Metformin] + Nc1nc2[nH]cc(CCc3ccc(C(=O)N[C@@H](CCC(=O)O)C(=O)O)cc3)c2c(=O)[nH]1 [Pemetrexed] (partner 0.2 µM)
# Assay: as above
# Details: first compound 10 µM
# Outline: as §1
row,Cell Line,relative viability
1,HCC-366,0.13
2,HCC-827,0.236
3,HOP-62,0.239
4,LCLC-103H,0.446
5,LOU-NH91,0.438
6,LU99A,0.152
7,LXF-289,0.74
8,NCI-H23,0.679
9,NCI-H322M,0.68
10,NCI-H520,0.656
11,NCI-H596,0.582

# Same assay, conditions: first compound 31.62 µM
row,Cell Line,relative viability
1,HCC-78,0.878
2,HCC-366,0.21
3,HCC-827,0.282
4,HOP-62,0.336
5,LC-2-ad,0.313
6,LCLC-97TM1,0.198
7,LCLC-103H,0.485
8,LOU-NH91,0.394
9,LU99A,0.212
10,LXF-289,0.83
11,NCI-H23,0.852
12,NCI-H322M,0.621
13,NCI-H441,0.255
14,NCI-H520,0.593
15,NCI-H596,0.563

# Same assay, conditions: first compound 100 µM
row,Cell Line,relative viability
1,HCC-78,1.15
2,HCC-366,0.139
3,HCC-827,0.265
4,HOP-62,0.276
5,LC-2-ad,0.271
6,LCLC-97TM1,0.198
7,LCLC-103H,0.434
8,LOU-NH91,0.409
9,LU99A,0.157
10,LXF-289,0.756
11,NCI-H23,0.652
12,NCI-H322M,0.644
13,NCI-H441,0.292
14,NCI-H520,0.688
15,NCI-H596,0.546

# Same assay, conditions: first compound 316.23 µM
row,Cell Line,relative viability
1,HCC-78,0.894
2,HCC-366,0.162
3,HCC-827,0.263
4,HOP-62,0.215
5,LC-2-ad,0.263
6,LCLC-97TM1,0.171
7,LCLC-103H,0.446
8,LOU-NH91,0.385
9,LU99A,0.168
10,LXF-289,0.806
11,NCI-H23,0.586
12,NCI-H322M,0.606
13,NCI-H441,0.266
14,NCI-H520,0.657
15,NCI-H596,0.498

# Same assay, conditions: first compound 1000 µM
row,Cell Line,relative viability
1,HCC-78,0.908
2,HCC-366,0.158
3,HCC-827,0.263
4,HOP-62,0.321
5,LC-2-ad,0.25
6,LCLC-97TM1,0.188
7,LCLC-103H,0.445
8,LOU-NH91,0.437
9,LU99A,0.164
10,LXF-289,0.784
11,NCI-H23,0.79
12,NCI-H322M,0.594
13,NCI-H441,0.264
14,NCI-H520,0.689
15,NCI-H596,0.539

# Compound: N#CC1(c2ccc(NC(=O)c3cccnc3NCc3ccncc3)cc2)CCCC1 [Apatinib] + Cc1nc(Nc2ncc(C(=O)Nc3c(C)cccc3Cl)s2)cc(N2CCN(CCO)CC2)n1 [Dasatinib] (partner 0.075 µM)
# Assay: as above
# Details: first compound 0.08 µM
# Outline: as §1
row,Cell Line,relative viability
1,HCC-78,0.332
2,HCC-366,0.661
3,HCC-827,0.287
4,HOP-62,0.732
5,LC-2-ad,0.718
6,LCLC-97TM1,0.824
7,LCLC-103H,0.436
8,LOU-NH91,0.505
9,LU99A,0.526
10,LXF-289,0.234
11,NCI-H23,0.799
12,NCI-H322M,0.253
13,NCI-H441,0.646
14,NCI-H520,0.228
15,NCI-H596,0.634

# Same assay, conditions: first compound 0.253 µM
row,Cell Line,relative viability
1,HCC-78,0.289
2,HCC-366,0.559
3,HCC-827,0.326
4,HOP-62,0.699
5,LC-2-ad,0.774
6,LCLC-97TM1,0.763
7,LCLC-103H,0.402
8,LOU-NH91,0.552
9,LU99A,0.565
10,LXF-289,0.253
11,NCI-H23,0.837
12,NCI-H322M,0.229
13,NCI-H441,0.486
14,NCI-H520,0.205
15,NCI-H596,0.564

# Same assay, conditions: first compound 0.8 µM
row,Cell Line,relative viability
1,HCC-78,0.361
2,HCC-366,0.565
3,HCC-827,0.273
4,HOP-62,0.689
5,LC-2-ad,0.511
6,LCLC-97TM1,0.767
7,LCLC-103H,0.458
8,LOU-NH91,0.498
9,LU99A,0.523
10,LXF-289,0.232
11,NCI-H23,0.694
12,NCI-H322M,0.245
13,NCI-H441,0.511
14,NCI-H520,0.176
15,NCI-H596,0.556

# Same assay, conditions: first compound 2.53 µM
row,Cell Line,relative viability
1,HCC-78,0.333
2,HCC-366,0.647
3,HCC-827,0.236
4,HOP-62,0.571
5,LC-2-ad,0.391
6,LCLC-97TM1,0.711
7,LCLC-103H,0.43
8,LOU-NH91,0.528
9,LU99A,0.486
10,LXF-289,0.177
11,NCI-H23,0.727
12,NCI-H322M,0.256
13,NCI-H441,0.566
14,NCI-H520,0.203
15,NCI-H596,0.564

# Same assay, conditions: first compound 8 µM
row,Cell Line,relative viability
1,HCC-78,0.302
2,HCC-366,0.601
3,HCC-827,0.231
4,HOP-62,0.589
5,LC-2-ad,0.4
6,LCLC-97TM1,0.504
7,LCLC-103H,0.344
8,LOU-NH91,0.471
9,LU99A,0.416
10,LXF-289,0.182
11,NCI-H23,0.611
12,NCI-H322M,0.247
13,NCI-H441,0.449
14,NCI-H520,0.203
15,NCI-H596,0.555
